Assay results as given in patent publication US5334612A, “Pharmaceutical compositions containing as active substance sulphur-containing carboxylic acids and their use in combating retroviruses” (priority 1988, dated 1994).

Experiments:
HIV-1 = assay: Reduction of infectious viruses (HIV-1) in cell culture supernatant in vitro; format: cell-based
Description: For example the compounds of Formula I have a good, growth-inhibiting effect on HIV (type 1 and 2) which may be shown in vitro for example in the following virological-cell biological test processes:
3. Determination of reverse transcriptase in culture supernatant
4. Determination of the p24 antigen in culture supernatant
Thus, for example, a single dose of 0.035 mg/ml of compound I (for example alpha-lipoic acid, racemate) reduces the number of infectious viruses (for example HIV-1) in cell culture supernatant from 100% in the positive control to 0%.
For the in vitro trials the active substance of Formula I is used, for example in benzyl alcohol as solvent.
For in vitro investigations into the replication behavior of retroviruses, in particular HIV, it is for example possible to use the following substrates:
1. Virus-containing RPMI 1640 medium, for example 1X liquid 041-01875 (synthetic culture medium from Gibeo according to Moore, Gerner and Franklin, H.A. (1967), J.A.M.A. 199; 519) with a concentration of 2×10^3 -1×10^4 infectious units (PFU)/ml.
2. The cell lines Jurkat Clone E6-1, Sup T1 and HeLa CT4.

[1] = system: HIV-1 in permanently infected Molt4 cells; assay: Plaque test, tumor cell line (Molt4) permanently infected with HIV-1; format: cell-based
Description: (§1) The inhibitory effect is shown in a cell line permanently infected with HIV-1.
(§2) 1. Negative (non infected) cells (for example Molt 4) are removed from the culture bottle with RPMI 1640 culture medium and centrifuged down in an appropriate vessel. As a basic principle, the negative cells may be the cells from any CD4 receptor-positive T-cell line. It is, for example, possible to use the following commercially available cell lines: H9, Hut78, SupT1, Jurkat, Molt4. Molt4 is for example a monoclonal T-cell line of the peripheral blood of a cancer patient. T-cell lines are derived from human tumors, for example from specific forms of leukemia. Cell lines of this type grow permanently as long as they are kept in the appropriate culture medium and CO2 concentration in an incubator at 37° C. These lines may be purchased from the American Type Culture Collection (ATCC).
2. These Molt4 cells are then resuspended (taken up) in highly virus-containing culture medium (RPMI 1640+10% fetal calf serum) placed in a culture flask and incubated (cultivated) for ca. 12 hours in an incubator at 37° C. and 5% CO2. This infects part (depending on the concentration of the infectious virus) of the cells.
3. After 12 hours the cells are again separated by centrifugation and resuspended in fresh medium (RPMI 1640, containing no virus) and cultivated for ca. 4 weeks in an incubator.
4. Once every week the medium is completely replaced (separated by centrifugation, resuspended, etc.) and negative, non-infected cells are added.
5. After ca. 4 weeks 80-100% of the cells are infected=permanently infected cell line. The infection is for example determined using immunofluorescence. The cells infected in this manner produce HIV in a titer range of about 10^5 -10^6 infectious units (PFU). The tumor cell line permanently infected in this manner (Molt4) is treated for three weeks with 70 μg of α-lipoic acid/ml. Every three days culture medium and α-lipoic acid are replaced and the activity of the virus determined in the reverse transcriptase and plaque test. […]

[2] = system: HIV-1 in permanently infected Molt4 cells; assay: Reverse transcriptase test, tumor cell line (Molt4) permanently infected with HIV-1; format: cell-based; settings: 70 μg/ml, FIG. 1
Description: as §1, §2
2. These Molt4 cells are then resuspended (taken up) in highly virus-containing culture medium (RPMI 1640+10% fetal calf serum) placed in a culture flask and incubated (cultivated) for ca. 12 hours in an incubator at 37° C. and 5% CO2. […]
5. […] The infection is for example determined using immunofluorescence. […] Every three days culture medium and α-lipoic acid are replaced and the activity of the virus determined in the reverse transcriptase and plaque test. […]

[3] = system: HIV in freshly infected Jurkat cells; assay: Plaque test, freshly infected Jurkat cells; format: cell-based; settings: 7 days
Description: To compare both compounds, freshly split Jurkat cells were infected with HIV (8×10^3 PFU) and afterwards recombinant alpha interferon (rIF) (70 units/ml) or 35 ng/ml of α-lipoic acid was added thereto using a pipette. The experiment was concluded after 7 days in order to assess in particular the growth of the first virus generation.
Cells are taken up in fresh medium and may now be defined as being freshly infected cells. As distinct from permanently infected cells, far fewer cells are virus carriers, and therefore synchronously treated, i.e. the first and second virus generation is given off into the culture supernatant relatively at the same time on the 3rd and 7th day. These virus generations may be quantified on these days (plaque and reverse transcriptase test) and may be compared. The term "single hit kinetics" is also used in this context.
3. α-lipoic acid is added using a pipette.
Cells are cultured for 7 days in an incubator.
On day 4 and day 7 samples are withdrawn from the culture for plaque and RT assay.

[4] = system: peripheral blood lymphocytes; assay: Proliferation rate or lethality of peripheral blood lymphocytes; format: cell-based; settings: 70 μg/ml
plasma p24 antigen (HIV) = assay: Plasma p24 antigen level (ELISA) in HIV-infected patients; format: in vivo, human patients (HIV)
Description: (§3) Determination of the plasma p24 antigen level using a commercial ELISA; p24 is the designation for a structural protein of the HIV virus; ELISA (Enzyme Linked Immuno Sorbent Assay) is a test technique frequently used in virology in order to determine proteins, antigens, etc.
(§4) The following results were recorded in 4 patients in Walter Reed stage 6. Application of α-lipoic acid was, by means of infusion of an α-lipoic acid solution having the following composition: 10 ml of aqueous solution containing 250 mg of α-lipoic acid in the form of the ethylene diamine salt (=323 mg salt) as well as 1 g of 1,2-propylene glycol and 100 mg of benzyl alcohol.
Walter Reed stages: division of HIV-infected patients according to the degree of their clinical symptoms. In stage 0 no HIV virus can be detected. Stage 6 relates to the final stage of AIDS.

[5] = system: HIV from patient lymphocytes; assay: Virus isolation with cocultivation (standard method) from patient lymphocytes; format: in vivo, human patients (HIV)
Description: (§5) Virus isolation with cocultivation: patient lymphocytes are cocultivated with donor lymphocytes. The virus produced by these cells (p24) is measured using an ELISA after 21 days (standard method).
as §4

[6] = system: HIV p24 production from patient lymphocytes; assay: Virus isolation without cocultivation, p24 production of patient lymphocytes; format: in vivo, human patients (HIV)
Description: (§6) Virus isolation without cocultivation: the production of virus (p24) from 1×10^6 patient lymphocytes is quantitatively measured using an ELISA after 11 days. No donor lymphocytes are added in this standardized method. Virus production may be quoted in pg^1 p24/ml/200,000 cells. (Newly developed method). Cell titration: virus isolation is carried out starting from a decreasing number of patient lymphocytes (e.g. 10^6, 10^5, 10^4).
as §4

[7] = system: HIV from patient lymphocytes; assay: Virus isolation with cell titration; format: in vivo, human patients (HIV)
Description: as §6, §4

infectious HIV in plasma = assay: Plasma titer (number of infectious viruses in the plasma); format: in vivo, human patients (HIV)
Description: (§7) Determination of the plasma titer which states the number of infectious viruses in the plasma.
as §4

[8] = Acute toxicity in the mouse (LD 50, Miller and Tainter); settings: in vivo, oral
Description: The acute toxicity of α-lipoic acid in the mouse (expressed in the LD 50 mg/kg; Method after Miller and Tainter: Proc. Soc. Exper. Biol. a. Med. 57 (1944) 261) is, for example, in oral application above 400 mg/kg body weight, that of dihydrolipoic acid above 200 mg/kg body weight mouse.

[9] = Plasma level at normal oral dosage; format: in vivo; settings: side effect-free dosage
HIV = assay: Virological markers overall in HIV-infected patients; format: in vivo
Description: as §3, §5, §6, §7, §4

[10] = cited from earlier work
[11] = animal experiments, rats and mice; cited from earlier work
[12] = patient 2, towards the end and after conclusion of therapy

Work on O=C(O)CCCCC1CCSS1 (racemic) [α-lipoic acid] yielded a minimal effective concentration (HIV-1; Human immunodeficiency virus 1, same test procedure, read-out: low dose at which a virus-inhibiting effect can be demonstrated) of 1 µg/mL, an activity at 35 µg/mL (HIV-1; Human immunodeficiency virus 1, single dose of 0.035 mg/ml, read-out: number of infectious viruses in cell culture supernatant (positive control 100%)) of 0% and an inhibition at 70 µg/mL ([1]; Human immunodeficiency virus 1, MOLT-4, 72 h, read-out: reduction of infectious virus units) of ~100%. The “number of infectious virus units” value ([1]; after 3 days, 70 μg/ml, FIG. 1) was “about 0”, the development of tolerance ([1]; three weeks, 70 μg/ml) was “no sign or evidence of the development of tolerance after three weeks” and the “time from which number of virus units produced falls” value [2] was ≥ 6 days. For the same compound, the inhibition at 70 µg/mL ([2]; Human immunodeficiency virus 1, MOLT-4, 504 h, after three weeks, read-out: reduction of number of virus units produced) was 90%, the “inhibition of viral replication” value ([3]; infected, not pre-treated Jurkat cells, α-lipoic acid 35 ng/ml (so in the source), rIF 70 units/ml, FIG. 2 and 3) was “comparable inhibition” and the “inhibition in the plaque test” value ([3]; α-lipoic acid 35 ng/ml (so in the source) vs rIF 70 units/ml, FIG. 3) was “clearer”. For the same compound, the “proliferation rate or lethality of peripheral blood lymphocytes” value [4] was “not substantially affected”, the “plasma p24 antigen level, fraction of initial value” (plasma p24 antigen (HIV); cases 1 and 2, ca. 14 days, summary) was 1/10 and the “plasma p24 antigen level” value (plasma p24 antigen (HIV); patient 1, infusion, 14 days after commencement of therapy, before therapy 0.350 ng/ml) was 0.05 ng/mL. For the same compound, the “plasma p24 antigen level” value (plasma p24 antigen (HIV); patient 1, infusion, day 29, before therapy 0.350 ng/ml) was 0.025 ng/mL, the “plasma p24 antigen level” value (plasma p24 antigen (HIV); patient 1, infusion, until end of therapy (58 days), before therapy 0.350 ng/ml) was 0.25 ng/mL and the “plasma p24 antigen level, initial fall” value (plasma p24 antigen (HIV); patient 2, infusion, prior to treatment 0.4 ng/ml) was “barely the 10-fold value”. For the same compound, the “plasma p24 antigen level” value (plasma p24 antigen (HIV); patient 3) was “always negative”, the “plasma p24 antigen level, change after end of therapy” value (plasma p24 antigen (HIV); patient 4, after end of therapy) was “again rose to the initial values” and the “plasma p24 antigen level” value (plasma p24 antigen (HIV); patient 4, infusion, up to the 18th day of therapy, before/at beginning of therapy 0.070 ng/ml) was 0.005 ng/mL. The “virus isolation from patient lymphocytes” value ([5]; cases 2 and 3, summary) was “totally negative”, the “virus isolation (standard method)” value ([5]; patient 1, throughout the entire therapy period) was “positive” and the virus isolation [5, 12] was “repeatedly negative”. For the same compound, the “virus production in virus isolations from patient lymphocytes” value ([6]; cases 2, 3 and 4, summary) was “markedly lower virus production”, the “production of p24 antigen, change after end of therapy” value ([6]; patient 3, after the end of therapy) was “rose again slowly” and the “production of p24 antigen” value ([6]; patient 3, by day 28, before therapy about 10) was 0 pg/ml 200,000 cells. For the same compound, the “production of p24 antigen, change” value ([6]; patient 3, day 5 of therapy, before therapy about 10 pg/ml 200,000 cells) was “doubled”, the “p24 production, change after end of therapy” value ([6]; patient 4, after end of therapy, also treated with AZT) was “did not rise significantly” and the “p24 production/ml/200,000 cells, fall” value ([6]; patient 4, up to the end of therapy, before therapy 8 pg/ml, also being treated with AZT at this time) was 75%. The “cell titer, number of cells from which virus could be cultivated” value ([7]; patient 2, during treatment, before treatment 10^3 cells) was 10^5 cells, the “cell titer, fall” value ([7]; patient 2, during treatment, before treatment 1000) was “fell by two orders of magnitude” and the “results after conclusion of therapy” value ([7]; patient 4, after conclusion of therapy) was “deteriorated once again”. The virus detection ([7]; patient 4, end of therapy (in the current range), before therapy virus clearly detected in 2×10^6 cells) was “hardly any viruses could be detected”, the positive plasma titers (infectious HIV in plasma; cases 2 and 4, in the course of therapy, summary) was 0 and the plasma titrations (infectious HIV in plasma; patient 3) was “always negative”. For the same compound, the plasma titer (infectious HIV in plasma; patient 4, during therapy, before therapy 10) was 0, the LD50 [8] was > 400 mg/kg and the “factor by which 70 μg/ml is above the plasma levels” value [9] was 10-20 times. For the same compound, the virus markers (HIV; [12]) was “drastic fall in all virus markers”, the “improvement in virological markers” value (HIV; patients with clearly measurable virological markers) was “marked improvement in these parameters” and the pharmacological properties ([10]; racemate) was “anti-inflammatory, antinociceptive (analgesic) and cytoprotective properties”. For the same compound, the “effect in fungus poisoning / coenzyme and growth factor roles” value ([10]; α-lipoic acid racemate) was “acts as co-enzyme in many enzymatic reactions, constitutes a growth factor for certain bacteria and protozoas and is used in death-head fungus poisoning”.
In the case of O=C(O)CCCCC(S)CCS (stereo not drawn) [dihydrolipoic acid, 6,8-dimercapto-octanoic acid], the LD50 [8] is listed as > 200 mg/kg and the “inactivation of snake venom” value [11] is listed as “inactivates snake venom”.
